In patent publication US20180192641A1, “Compositions and Methods for Preservation of Materials in the Amorphous State” (University of North Carolina Charlotte, priority 2014, published 2018):

Key:
[1] = 25° C.; cited from earlier work
[2] = 37.5% RH; cited from earlier work
[3] = moisture sorption (dynamic vapor sorption) and visual onset of crystallization in microwave-dried amorphous trehalose/salt samples at 61% RH; format: physicochemical
Protocol: A stock solution of 30.8 wt % trehalose (1.3 M), made in 1×TE buffer (1×Tris-EDTA buffer, pH 8.0, consisting of 10 mM Tris-HCl and 1 mM EDTA), was used to prepare solutions with varying amounts of phosphate salts (salt to trehalose molar ratio (R) is 1:4.8, 1:2 and 1:0.7). […] The end moisture content was measured below 0.105 gH2O/gdw which is known to produce a glass transition temperature higher than room temperature in the case of aqueous trehalose solutions. […] Specifically, in order to investigate moisture sorption in different trehalose/salt compositions at the 61% relative humidity, a closed environment with a stable relative humidity over the test duration was prepared. Supersaturated salt solutions of sodium bromide (prepared by following ASTM Protocol E 104-02) are capable of producing an environment with constant relative humidity of 61%. […] glass jars with rubber seals and clamps or Mason glass jars with screw caps are used as controlled humidity vessels (1 L, total height 159 mm, mouth Dia. 89 mm). The dynamic vapor sorption (DVS) method was used to monitor moisture sorption in the microwave-processed trehalose samples before and after crystallization (crystals were detected visually in samples). The moisture uptake in trehalose/salt samples were monitored to evaluate the effect of salts on end moisture content at time zero after microwave processing at 11% RH. Moisture sorption trends in samples over the experiment duration while held in the preservation jars (61% RH) were also evaluated. In this study, the gravimetric method was used to determine the dry weight of samples with different compositions (expressed in terms of mass of water per mass of solids). […] (below the crystallization temperature of Trehalose). The sample was then cooled in a desiccator containing phosphorus pentoxide (P2O5) which maintained the humidity near 0% RH. By recording the initial wet mass and the bake-out dry mass, the dry weight of each composition was obtained.

[4] = remained constant in RH environment of up to 92%; cited from earlier work

OC[C@H]1O[C@H](O[C@H]2O[C@H](CO)[C@@H](O)[C@H](O)[C@H]2O)[C@H](O)[C@@H](O)[C@@H]1O [pure trehalose, trehalose]
RH at which isotherm exhibited a plateau (formation of trehalose dihydrate crystals) [1]: ≥ 44 % RH | crystals on DSC thermograms [2]: did not show any crystals | water absorbed to enable the formation of trehalose dihydrate ([3]; 61% RH): around 0.105 gH2O/g trehalose | moisture content level after crystallization ([3]; 61% RH, level the moisture content fell to after crystallization (pure trehalose: during the following 18 days)): around 0.105 gH2O/gdw | time (day) of onset of sugar crystallization, observed visually ([3]; storage at 61% RH after microwave drying at 11% RH): 1 days

OC[C@H]1O[C@H](O[C@H]2O[C@H](CO)[C@@H](O)[C@H](O)[C@H]2O)[C@H](O)[C@@H](O)[C@@H]1O [trehalose dihydrate]
moisture content of trehalose dihydrate [4]: 9.54%

C[N+](C)(C)CCO.O=P([O-])(O)O [pure choline dihydrogen phosphate, choline dihydrogen phosphate]
hygroscopicity (moisture uptake) ([3]; 61% RH): very hygroscopic | crystallization observed ([3]; 61% RH, pure salt without trehalose): no crystallization
